Common to all, as to type: cell-based, human
In one assay the test system is HCT116 mTRdm-fLUC cells. The assay can be described thus: 5-Assay / 15-Assay toxin assays, fLUC plate reader (Fold Induction).
For assay [1], the system named is MCF7 mTRdm-fLuc subclones #8, #27, and #45. Nature of the assay: PKC activator dose response, cap-independent TR translation (fLuc). The settings on record: single-Toxin, 6 hr. The method, then:
Following 6 hr culture with a TPA single-Toxin assay, cells were lysed and fLuc protein activity measured using a standard microplate reader assay. The plate reader values were averaged and expressed as the ratio of treated to untreated samples (Fold Induction).
As with FIG. 27B, dashed lines represent translational response levels achieved by the 100 nM TPA assay in each cell line. […] A further difference between the cap-dependent and cap-independent assays was the observation that increased Bryostatin 2 concentrations (5× the maximal TPA dose) never produced fLUC activity equivalent to the 100 nM TPA assay. Thus, the Toxin Assay procedure can detect a statistically significant difference in cap-dependent and cap-independent translation in compounds that activate PKC activity.
In the cap-independent assays, a similar dose response trend was observed over a 1 nM to 250 nM range with a translational peak at a 100 nM dose. However, the magnitude of the Bryostatin increases were generally 30% of 100 nM TPA response.

The test system of assay [2] is MCF7 CMV-fLuc subclones #44 and #48. The assay can be described thus: PKC activator dose response, cap-dependent translation (fLuc). Conditions: single-Toxin, 6 hr. The method, then: Following 6 hr exposure to the Single-Toxin TPA assay, cells were lysed and fLuc protein activity measured using a standard microplate reader assay. The raw values were averaged and expressed as the ratio of treated to untreated samples (Fold Induction).
Dashed lines represent translational response levels produced by a 100 nM TPA Single-Toxin assay. The Bryostatin 1 concentrations (top panel) encompassed the TPA concentrations used in FIG. 27A. […] The Bryostatin 2 dose response curve (bottom panel) employed higher drug concentrations (the maximal tested dose was 5× the largest TPA and Bryostatin 1 amounts). At the highest tested dose (2.5 uM), Bryostatin 2 produced fLuc activity consistent with the level observed with 100 nM TPA.
In addition to measuring cap-dependent and cap-independent translational effects, Class-specific translational activity and toxin-defined actions, the previously described materials and methods allow for a variety of applications designed to detect and characterize agents and processes that regulate ribosome activity. In this example, comparative dose response assays were used to detect cap-dependent and cap-independent translational regulation in MCF7 cells. The basis for this application was the observation that distinct translational responses are produced by compounds at different doses. When an assortment of compounds act on a common molecular target, they can be grouped into a genus of related drugs. By comparing individual species of a compound genus over a defined dose range, differences in translational regulation can be defined. Furthermore, these translational differences can often be linked to biological differences.
In this example (FIG. 27), the three PKC activators produced similar dose response trends in cap-dependent assays. […] However, macrolide lactones produced translational increases that were generally 60-70% of the TPA translational response (FIG. 27B). In fact, a 25 fold increase in Bryostatin 2 concentration (2.5 uM) was needed to produce a translational magnitude similar to the 100 nM TPA assay (FIG. 27B).

Assay [3] concerns HEK293 CMV-fLuc subclone #3. The assay can be described thus: Updated 15-Assay / 21-Assay, cap-dependent translational responses. Conditions: Updated 15-Assay two-Toxin with 100 nM TPA, cap-dependent. An excerpt: (§1) The dashed line represents the level of translational response in the untreated samples.
Following 6 hr exposure to the compounds, cells were lysed and fLuc protein activity measured using a standard microplate reader assay. The triplicate plate reader values were averaged and expressed as the ratio of treated to untreated samples (Fold Induction). The dashed line represents the level of translational response in the untreated samples.
The 21-Assay procedure employs the same standard toxins as the Updated 15-Assay protocol. The extra 6 assays involve an unknown or an uncharacterized compound and its pairwise combinations with the five toxins: Unknown, Unknown+TPA, Unknown+Colchcine, Unknown+Bortezomib (Velcade), Unknown+Low dose Calon, and Unknown+Hycamtin (Topotecan).
Application of single-Toxin and two-Toxin assays in the Updated 15-Assay protocol was used to define cap-dependent translational responses in the HEK293 CMV-fLuc #3 subclone (FIG. 30A).
The combinatorial process described in this example provides a system for testing translational regulation by unknown compounds. In this example, a 21-Assay setup is described that employs the single and pairwise combinatorial application of 5 toxins, as in a standard 15-Toxin assay, and the addition of a sixth substance. Inclusion of the sixth substance requires the expansion of the assay group to a total of 21 single- and two-Toxin assays. For this example, a control substance (taxol) was selected from the original 15-Assay system.

Assay [4] deals with MCF7 mTRdm-fLuc subclone #27. The assay can be described thus: Topoisomerase 1 inhibitor single-Toxin and two-Toxin (100 nM TPA) dose response, cap-independent. The method, then:
FIG. 28C illustrates the use of single-Toxin Assays to measure the effects of Topoisomerase 1 inhibitors on cap-independent translation in MCF7 cells. Triplicate samples of the MCF7 mTRdm-fLuc subclone #27 were treated with varying concentrations (10 nM to 10 uM range) of the Topoisomerase 1 inhibitors; camptothecin, rubitecan, irinotecan and topotecan. The plate reader values were averaged and expressed as the ratio of treated to untreated samples (Fold Induction). The dashed line represents the level of translational response in untreated controls.
FIG. 28D illustrates the use of a two-Toxin Combinatorial Assay on the MCF7 mTRdm-fLuc subclone #27 treated with 100 nM TPA plus varying doses (10 nM to 10 uM range) of the Topoisomerase 1 inhibitors. The plate reader values were averaged and expressed as the ratio of treated to untreated samples (Fold Induction). The dashed line represents the level of translational response in untreated samples. All four inhibitors acted synergistically with TPA to increase protein activity in the 10 nM two-Toxin assay.
FIG. 28D illustrates the use of a two-Toxin dose response assay using varying dosages of the TopoI inhibitors in combination with the 100 nM TPA translational activator. All four inhibitors acted synergistically with TPA at low doses to increase protein translation. At concentrations higher than 100 nM, camptothecin, rubitecan, and topotecan antagonized the TPA response and reduced the fLUC expression.

The test system of assay [5] is MCF7 CMV-fLuc subclone #65. Nature of the assay: Topoisomerase 1 inhibitor single-Toxin and two-Toxin (100 nM TPA) dose response, cap-dependent. The settings on record: 10 nM to 10 uM. The method, then: FIG. 28A illustrates a dose response assay of the MCF7 CMV-fLuc subclone #65 treated with varying doses (10 nM to 10 uM range) of the following Topoisomerase 1 inhibitors: camptothecin, topotecan, irinotecan, and rubitecan. Following a 6 hr incubation in a single-Toxin assay, cells were lysed and fLuc protein activity measured using a standard microplate reader assay. The plate reader values were averaged and expressed as the ratio of treated to untreated samples (Fold Induction). The dashed line represents the level of translational response in untreated cell samples.
FIG. 28B illustrates the use of a Combinatorial Assay to examine the effects of Topoisomerase 1 inhibitors on cap-dependent translation. A series of dose response assays were performed on the MCF7 CMV-fLuc subclone #65 using varying doses of the Topoisomerase 1 inhibitors (10 nM to 10 uM range) in a Two-Toxin assay with a constant 100 nM TPA dose. The plate reader values were averaged and expressed as the ratio of treated to untreated samples (Fold Induction). The dashed line represents the level of translational response in untreated samples.
FIG. 28A illustrates a cap-dependent dose response assay of MCF7 cells treated with varying dosages (10 nM to 10 uM range) of the following TopoI inhibitors: camptothecin, topotecan, irinotecan, and rubitecan. […] While the altered irinotecan response might have been predicted based on its metabolic requirements, the lack of topotecan action on cap-dependent translation in the single-Toxin assays was unexpected.
Since similar doses inhibited translation in the single-Toxin assays (FIG. 28A), this effect might have represented a direct effect on translation.

Assay [6] relates to HEK293 mTRdm-fLuc subclone #13 and HEK293 hTRdm-gLuc subclone #79. The assay can be described thus: Updated 15-Assay / 21-Assay, TR translational responses (fLuc, gLuc). The settings on record: Updated 15-Assay, High Dose 10 uM, single- and two-Toxin. The method, then:
as §1
As before, secreted Gaussia Luciferase (gLUC) activity was measured in conditioned media 6 hr after drug application and protein activity expressed as the ratio of treated to untreated samples (Fold Induction). The dashed line represents the translational response in untreated cells.
The dashed line represents the translational response produced by untreated cell samples.
Following a 6 hr culture time, secreted gLuc activity was measured in conditioned media using a standard microplate reader assay and expressed as the ratio of treated to untreated samples (Fold Induction). The dashed line represents the level of translational response in the untreated samples. Given that the gLuc protein is secreted into the media, it escapes the cytoplasmic protein turnover processes acting on the fLUC protein. Therefore, any difference in the apparent TR response is a likely result of variation in reporter protein synthesis, secretion or reduced protein turnover.
The 21-Assay procedure employs the same standard toxins as the Updated 15-Assay protocol. The extra 6 assays involve an unknown or an uncharacterized compound and its pairwise combinations with the five toxins: Unknown, Unknown+TPA, Unknown+Colchcine, Unknown+Bortezomib (Velcade), Unknown+Low dose Calon, and Unknown+Hycamtin (Topotecan). […]

Method for HCT116 mTRdm-fLUC cells: The 5-Assay and 15-Assay procedures were applied to cellular pools using either of two growth procedures (e.g. a Cell Count or Confluence growth assay). For a Cell Count assay, cells from the P1 pool dish were counted and passed into a white clear bottom 96-well microtiter tray at a density of 25,000 cells per well; the leftover cells were passed into a passage 2 (P2) dish. Cells in the microtiter plate were allowed to grow for about 40 hr to achieve a ˜75% cell confluence prior to incubation with a toxic agent. Then cells in a microtiter plate were treated with complete growth medium containing either no toxin or an optimal toxin, defined as a single or multiple toxin assay that produces a maximal translational response (taken from Table 3) and incubated for 6 hours at 37° C. Each treatment was performed on triplicate wells.
After toxin incubation, cells were examined by phase contrast microscopy for signs of detachment. If more than ˜10% of cells were detached, the 96-well plates were centrifuged at 1200 rpm for 3 min to pellet the detached cells. The media were removed and replaced with 50 μL of Cell Lysis Buffer (25 mM Tris-phosphate (pH7.8), 10% glycerol, 1% Triton X-100, 1 mg/ml BSA, 2 mM EGTA and 2 mM DTT). Cells were incubated with the Cell Lysis Buffer for 10 min at RT and cell lysis was verified using a phase contrast microscope. To ensure complete lysis, the lysates were vigorously agitated using the multichannel pipettor. Any air bubbles formed as a result of agitation were manually removed with a syringe needle. Luminescence was measured using the FLUOstar Optima (BMG Labtech) microplate reader. To develop luminescence, wells were injected with 5 μL of the D-luciferin solution dissolved in Reaction Buffer (25 mM Glycylglycine (pH 7.8), 15 mM MgSO4, 4 mM EDTA, 15 mM Potassium phosphate, 1 mM DTT, 1 mM Coenzyme A, 6.7 mM ATP and 3.35 mM D-luciferin). After 4 sec with shaking, luminescence values were measured using the lens filter at gains of 2500-4000.
Light values were converted to Fold Induction using the ratio of values produced by treated and untreated cells. The maximal TR-specific translational response produced by the 5-Toxin or 15-Toxin assay was used to assign an optimal toxin assay (maximal translational response) which was subsequently used to screen subclones derived from this pool and to assign a Class designation. […]
In one test, the 5-Assay procedure (Table 3) was applied to HCT116 mTRdm-fLUC 12-16 subclone #30 cells (FIG. 1A). […] Samples were then processed with Lysis buffer and read in a plate reader. […]
Triplicate samples of HCT116 mTRdm-fLUC 12-16 Sub#30 cells were cultured with the two-Toxin assays using a standard plate reader protocol (FIG. 1C). […]

Regarding `CCCCCCCCCCCCCC(=O)O[C@@H]1[C@@H](C)[C@@]2(O)[C@@H](C=C(CO)C[C@]3(O)C(=O)C(C)=C[C@@H]23)[C@@H]2C(C)(C)[C@]12OC(C)=O` [TPA, 12-O-tetradecanoylphorbol-13-acetate], in the assay with HCT116 mTRdm-fLUC cells (5-Assay, 6 hr, HCT116 mTRdm-fLUC 12-16 subclone #38), the “TR-specific toxin response” value is “Maximal TR-specific toxin responses”. Also, the “increase in reporter activity (maximal TR-specific response)” value in the assay with HCT116 mTRdm-fLUC cells (5-Assay, TPA single-Toxin 100 nM, 6 hr, HCT116 mTRdm-fLUC 12-16 subclone #30) was 800-1200%. For the same compound, the “dose giving peak fLuc protein activity” value in assay [1] was 100 nM. In addition, in assay [2], the “dose giving maximal reporter level (translational peak)” value was determined as 100 nM.
As for `CC(C)C[C@H](NC(=O)[C@H](Cc1ccccc1)NC(=O)c1cnccn1)B(O)O` [Velcade, [(1R)-3-methyl-1-[[(2S)-1-oxo-3-phenyl-2-[(pyrazinylcarbonyl)amino]propyl]amino]butyl] boronic acid], the “effect on the TPA response” value in assay [3] was “TPA response was antagonized”.
The same measure, in the same setting: the entry for `CNc1ccc2oc(C[C@H]3O[C@@]4(CC[C@H]3C)O[C@H]([C@H](C)C(=O)c3ccc[nH]3)[C@H](C)C[C@H]4C)nc2c1C(=O)O` [calcimycin, Calcimycin] is “TPA response was antagonized”.
For the compound `CCCC(=O)Nc1ncnc2c1ncn2[C@@H]1O[C@@H]2COP(=O)(O)O[C@H]2[C@H]1OC(=O)CCC` [dbcAMP, Dibutyryl-cyclic AMP], the “translational response” value with HCT116 mTRdm-fLUC cells (dbcAMP single-Toxin assay, HCT116 mTRdm-fLUC transformed subclones) was “minimal translational response”.
As to `CC[C@@]1(O)C(=O)OCc2c1cc1n(c2=O)Cc2cc3c(CN(C)C)c(O)ccc3nc2-1.Cl` [topotecan, (S)-10-[(dimethylamino)methyl]-4-ethyl-4,9-dihydroxy-1H-pyrano[3′,4′:6,7]indolizino[1,2-b]quinoline-3,14(4H,12H)-dione monohydrochloride], in assay [4] (single-Toxin, 10 nM to 10 uM), the “effect on cap-independent translation” value was “exhibited reduced fLUC activity at higher doses (5 uM and 10 uM)”. For the same compound, the “effect on TPA activity” value in assay [4] (two-Toxin with 100 nM TPA, 10 nM to 10 uM) was “antagonized the TPA activity and exhibited reduced fLUC expression”. In assay [4] (two-Toxin with 100 nM TPA, highest dose), the “fLUC expression at the highest dose” value is on record as “basal level expression”. Further, the “effect on cap-dependent translation” value in assay [5] (single-Toxin) is “neither topotecan or irinotecan significantly altered cap-dependent translation”. The “effect on TPA-specific translational response” value in assay [5] (two-Toxin with constant 100 nM TPA, cap-dependent) is “showed only the TPA inhibitory effect at high doses (i.e. 5 uM and 10 uM)”. Besides, in assay [3], the “effect on the TPA response” value is “TPA response was antagonized”. Besides, the “effect on translation” value in assay [6] is “inhibitory effect of Topotecan (HD) was evident in all Single- and two-Toxin assays”.

(Values after patent US9388405B2, “Method for identifying a subpopulation of mammalian cells with distinctive ribosome translation profiles” (priority 2009, dated 2016).)
